Data taken from the supplement of paper PMC10307832.

Columns and labels:
Experiment in all cases: relative viability (nuclei count vs DMSO), 5 days (fraction); higher = more cells survive
[1] = compound: COc1cc2/c(=N/c3ccc(Br)cc3F)nc[nH]c2cc1OCC1CCN(C)CC1 [Vandetanib] + CS(=O)(=O)CCNCc1ccc(-c2ccc3ncnc(Nc4ccc(OCc5cccc(F)c5)c(Cl)c4)c3c2)o1 [Lapatinib] (partner 2 µM)
Procedure, shortened: (§1)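 Dosing by pin tool came one day after lung cancer cell lines were seeded in 1536-well plates, using either one drug or a fixed anchor-drug dose plus five library-drug doses (not always all listed) in √10 steps. After 5 days, nuclei were counted on 4× images. Relative viability is treated-well nuclei count divided by vehicle-well nuclei count, and values are medians of duplicate plates.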

[2] = compound: C#Cc1cccc(Nc2ncnc3cc(OC)c(OCCCCCCC(=O)NO)cc23)c1 [CUDC-101] + C[C@@H](Oc1cc(-c2cnn(C3CCNCC3)c2)cnc1N)c1c(Cl)ccc(F)c1Cl [Crizotinib] (partner 1 µM)
Procedure, shortened: as §1

[3] = compound: C1=CC=C2C(=C1)N=C(S2)C(C#N)C3=NC(=NC=C3)NCCC4=CN=CC=C4 + CC(=O)c1c(C)c2cnc(Nc3ccc(N4CCNCC4)cn3)nc2n(C2CCCC2)c1=O [Palbociclib] (partner 0.5 µM)
Procedure, shortened: as §1

[4] = compound: C1=CC=C2C(=C1)N=C(S2)C(C#N)C3=NC(=NC=C3)NCCC4=CN=CC=C4 + Cc1nc(Nc2ncc(C(=O)Nc3c(C)cccc3Cl)s2)cc(N2CCN(CCO)CC2)n1 [Dasatinib] (partner 0.075 µM)
Procedure, shortened: as §1

| Cell Line | relative viability ([1]; first compound 0.02 µM) | relative viability ([1]; first compound 0.06325 µM) | relative viability ([1]; first compound 0.2 µM) | relative viability ([1]; first compound 0.6325 µM) | relative viability ([1]; first compound 2 µM) | relative viability ([2]; first compound 0.01 µM) | relative viability ([2]; first compound 0.03162 µM) | relative viability ([2]; first compound 0.1 µM) | relative viability ([2]; first compound 0.3162 µM) | relative viability ([2]; first compound 1 µM) | relative viability ([3]; first compound 0.005 µM) | relative viability ([3]; first compound 0.01581 µM) | relative viability ([3]; first compound 0.05 µM) | relative viability ([3]; first compound 0.1581 µM) | relative viability ([3]; first compound 0.5 µM) | relative viability ([4]; first compound 0.005 µM) | relative viability ([4]; first compound 0.01581 µM) | relative viability ([4]; first compound 0.05 µM) | relative viability ([4]; first compound 0.1581 µM) | relative viability ([4]; first compound 0.5 µM) |
| --- | --- | --- | --- | --- | --- | --- | --- | --- | --- | --- | --- | --- | --- | --- | --- | --- | --- | --- | --- | --- |
| LXF-289 | 0.899 | 0.842 | 0.89 | 0.871 | 0.887 | 0.804 | 0.835 | 0.828 | 0.736 | 0.577 | 0.46 | 0.6 | 0.612 | 0.625 | 0.503 | 0.152 | 0.237 | 0.209 | 0.24 | 0.179 |
| 201T | 0.968 | 1.03 | 1.03 | 0.994 | 1.05 | 1 | 1.02 | 0.979 | 1.06 | 0.97 | 0.292 | 0.354 | 0.354 | 0.383 | 0.325 | 0.799 | 0.523 | 0.599 | 0.549 | 0.486 |
| NCI-H520 | 0.679 | 0.807 | 0.918 | 0.936 | 0.831 | 0.743 |  | 0.756 | 0.636 | 0.316 | 0.193 | 0.266 | 0.231 | 0.259 | 0.213 | 0.231 | 0.158 | 0.188 | 0.324 | 0.18 |
